Experimental data from ChEMBL document CHEMBL2429817, “Trisubstituted imidazoles as positive modulators of metabotropic glutamate receptor subtype 5” (ACS Med Chem Lett, 2013).
pEC50: −log10 of the molar value.

Molecular target: Metabotropic glutamate receptor 5 (Homo sapiens, UniProt P41594)
Experiment: Positive modulation of human recombinant mGluR5 expressed in HEK293A cells by calcium based FLIPR assay
Format: functional, cell-based, HEK293-A

Sequence of Metabotropic glutamate receptor 5 (P41594 whole entry): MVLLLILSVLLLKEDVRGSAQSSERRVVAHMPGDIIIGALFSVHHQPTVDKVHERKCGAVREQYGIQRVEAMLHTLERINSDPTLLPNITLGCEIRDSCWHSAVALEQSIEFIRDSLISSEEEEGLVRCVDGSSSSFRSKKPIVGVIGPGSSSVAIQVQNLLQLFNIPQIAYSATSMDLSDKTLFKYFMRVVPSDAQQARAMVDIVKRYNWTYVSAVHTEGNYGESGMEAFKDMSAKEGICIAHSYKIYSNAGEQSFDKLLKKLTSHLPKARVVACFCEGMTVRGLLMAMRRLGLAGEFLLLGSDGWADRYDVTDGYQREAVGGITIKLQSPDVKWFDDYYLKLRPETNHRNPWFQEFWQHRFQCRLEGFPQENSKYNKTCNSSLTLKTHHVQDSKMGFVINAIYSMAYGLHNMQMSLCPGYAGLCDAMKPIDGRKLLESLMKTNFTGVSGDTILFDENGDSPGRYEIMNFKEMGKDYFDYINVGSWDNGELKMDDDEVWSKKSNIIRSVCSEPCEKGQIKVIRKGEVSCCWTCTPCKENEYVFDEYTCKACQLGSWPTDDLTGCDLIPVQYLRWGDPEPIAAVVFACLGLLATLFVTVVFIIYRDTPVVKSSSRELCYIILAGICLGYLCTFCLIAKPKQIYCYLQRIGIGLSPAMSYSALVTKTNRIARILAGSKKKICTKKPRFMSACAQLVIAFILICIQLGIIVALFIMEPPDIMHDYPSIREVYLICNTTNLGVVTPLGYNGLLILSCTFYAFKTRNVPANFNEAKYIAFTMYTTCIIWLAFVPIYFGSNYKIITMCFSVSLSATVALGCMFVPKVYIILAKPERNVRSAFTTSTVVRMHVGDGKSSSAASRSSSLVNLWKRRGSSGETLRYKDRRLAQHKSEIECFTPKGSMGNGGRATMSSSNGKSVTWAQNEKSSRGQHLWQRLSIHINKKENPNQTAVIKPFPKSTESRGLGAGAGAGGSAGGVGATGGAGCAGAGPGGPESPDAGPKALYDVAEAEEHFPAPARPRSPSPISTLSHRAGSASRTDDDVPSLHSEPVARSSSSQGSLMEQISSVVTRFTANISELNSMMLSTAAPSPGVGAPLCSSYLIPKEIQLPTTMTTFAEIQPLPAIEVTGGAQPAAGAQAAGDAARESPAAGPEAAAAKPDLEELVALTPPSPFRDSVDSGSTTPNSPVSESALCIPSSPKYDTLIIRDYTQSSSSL

Cc1cc(-c2cn(CC(=O)N3CCN(c4cccnn4)CC3)c(-c3ccccc3)n2)ccc1F
pEC50: 6.07

CC1=NC2CCN(C(=O)Cn3cc(-c4ccc(F)c(C)c4)nc3-c3ccccc3)CC2O1 (centres undefined)
pEC50: 7.05

CC1=NC2CCN(C(=O)Cn3cc(-c4ccc(F)c(C)c4)nc3-c3ccc(F)cc3)CC2O1 (centres undefined)
pEC50: 7.40

Cc1cc(-c2cn(CC(=O)N3CCN(c4ccccn4)CC3)c(-c3ccc(F)cc3)n2)ccc1F
pEC50: 7.28
